Assay results from patent EP3189850A1, “LIVER TARGETING OF CYCLIC PRES-DERIVED PEPTIDES OF HBV” (Ruprecht-Karls-Universität Heidelberg, priority 2015, dated 2017).
Bridge positions count the residues as written; N and C are the ends. Square brackets hold non-standard residues; d marks the D form. Ends that are not written are not given here. * marks the point of attachment. Myristoyl = CCCCCCCCCCCCCC(=O)*

Key:
[1] = Biodistribution and γ-camera imaging of the 125I-labeled peptide (Figure 4); format: in vivo; settings: γ-camera / biodistribution in NMRI mice
[2] = target: T1, NTCP (Mus musculus, UniProt O08705); experiment: Scintigraphic imaging (125I) and MicroPET (68Ga) of labelled peptides with and without excess of Myrcludex B (Figure 3); format: in vivo; settings: healthy mice; labelled peptide with and without excess of Myrcludex B; 20 and 120 min p.i.
T1 construct: from tissue; host or cells: liver of healthy mice, in vivo imaging
T1 sequence (O08705 1-362): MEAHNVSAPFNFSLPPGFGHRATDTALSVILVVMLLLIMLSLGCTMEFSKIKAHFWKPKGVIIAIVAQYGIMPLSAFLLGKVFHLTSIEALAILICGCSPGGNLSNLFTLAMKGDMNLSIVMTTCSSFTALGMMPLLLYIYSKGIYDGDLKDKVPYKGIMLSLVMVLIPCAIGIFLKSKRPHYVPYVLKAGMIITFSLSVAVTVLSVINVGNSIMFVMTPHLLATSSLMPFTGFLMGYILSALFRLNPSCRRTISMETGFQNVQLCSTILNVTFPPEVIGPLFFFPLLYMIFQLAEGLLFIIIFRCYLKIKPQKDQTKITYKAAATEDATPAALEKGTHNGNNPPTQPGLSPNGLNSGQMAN
Description: Ca. 1 mL of [^68Ga]Ga^3+ eluate (ca. 600-800 MBq) was added to a mixture of 20 µL of a 1mM solution of compound xy in DMSO and 10 µL of saturated solution of ascorbic acid in water. The pH of the resulting mixture was adjusted to 3.5-4.0 by careful addition of a 2.5 M sodium acetate solution in water. Complexation was achieved by heating to over 95°C for 5-10 minutes under constant stirring. The product was isolated by solid phase extraction with ethanol followed by evaporation. The residue was taken up in 1% bovine serum albumin solution and an appropriate amount (ca. 20-50 MBq) was used for the individual experiment in a volume not exceeding 100 µl. Mice were anesthetized with 1% sevoflurane (Abbott, Wiesbaden, Germany) and images were recorded using an Inveon small animal positron emission tomographic (PET) scanner (Siemens, Knoxville, TN) up to 60 minutes postinjection.

Substance | elimination via the intestine (time) [1] [h] | liver accumulation [1] | accumulation in the liver [2]
myr-cyclo-intra[NP^*LGFFPDy] | ≤ 2 | accumulates rapidly in the liver | –
myr-cyclo[CNPLGFFPDC]y (Myristoyl-CNPLGFFPDC[dY]; disulfide 1-10; also: 125I-labelled) [cyclo[9-16]myr, myristoylated Cys-HBVpreS9-16-Cys-D-Tyr cyclized via disulfide bridge of the two cysteines] | – | – | NTCP specific accumulation in the liver
